# Assay results: ChEMBL document CHEMBL1136202, “Imidazo[1,2-a]pyridines: a potent and selective class of cyclin-dependent kinase inhibitors identified through structure-based hybridisation” (Bioorg Med Chem Lett, 2003)
# Columns and labels:
# [1] = target: Cyclin-dependent kinase 4 (Homo sapiens, UniProt P11802); experiment: Inhibition of Cyclin-dependent kinase 4
# [2] = target: Cyclin-dependent kinase 2 (Homo sapiens, UniProt P24941); experiment: Inhibition of Cyclin-dependent kinase 2
# Cyclin-dependent kinase 4, sequence (P11802 whole entry): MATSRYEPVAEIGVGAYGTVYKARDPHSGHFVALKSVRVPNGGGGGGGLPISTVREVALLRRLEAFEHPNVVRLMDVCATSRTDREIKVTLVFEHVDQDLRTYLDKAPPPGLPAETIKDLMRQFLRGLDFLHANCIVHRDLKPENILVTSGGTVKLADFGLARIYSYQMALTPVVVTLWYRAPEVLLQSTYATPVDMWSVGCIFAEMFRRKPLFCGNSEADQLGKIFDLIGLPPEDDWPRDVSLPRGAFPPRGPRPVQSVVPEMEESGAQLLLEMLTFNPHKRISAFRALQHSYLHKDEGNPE
SMILES,IC50 [1] [µM],IC50 [2] [µM]
Cc1nc2ccccn2c1-c1ccnc(Nc2ccccc2)n1,3.6,0.036
Cc1nc2ccccn2c1-c1ccnc(NC(=O)Nc2ccccc2)n1,> 10,> 10
Cc1nc2ccccn2c1-c1ccnc(N)n1,8,4
CC(=O)Nc1nccc(-c2c(C)nc3ccccn23)n1,8.9,2.9
CN(C)CC(O)COc1ccc(Nc2nccc(Nc3ccccc3)n2)cc1 (stereo unspecified),–,32
Cc1nc2ccccn2c1-c1ccnc(NC(=O)C(F)(F)F)n1,40,95

# Continued, values first:
IC50 [1] [µM],IC50 [2] [µM],SMILES
0.15,–,Cc1nc2ccccn2c1-c1ccnc(Nc2ccc(OCC(O)CN(C)C)cc2)n1 (stereo unspecified)
2.5,< 0.003,Cc1nc2ccccn2c1-c1ccnc(Nc2ccc(S(N)(=O)=O)cc2)n1
2.7,0.006,Cc1ccc(F)c(Nc2ccnc(Nc3ccc(S(N)(=O)=O)cc3)n2)c1
